Source: patent US4929618A, “Piperdine and piperazine derivatives, and antihistaminic pharmaceutical compositions containing the same” (priority 1988, dated 1990)
Read-outs that look alike come from different tables or passages of the source.

Columns and labels:
histamine-induced death = test: Protective effect on histamine-induced death; format: in vivo, guinea pig (Hartley-strain male); conditions: oral 1 mg/kg, 2 h before 1.25 mg/kg i.v. histamine hydrochloride, guinea pig; for responders at 1 mg/kg: Cavia porcellus, read-out: Percent inhibition of histamine-induced death at a dose of 1 mg/kg, P.D. (%)
Protocol: Hartley-strain male guinea pigs weighing 200 to 250 g were employed. After the test animals were starved for 5 hours, the test substance was orally administered at a dose of 1 mg/kg. 2 hours later after administration of the test substance, 1.25 mg/kg of histamine hydrochloride was intravenously administered to induce histamine shock. The potency of the test substance was judged by the percent inhibition of death induced by histamine.

[1] = cited from earlier work
[2] = test system: thiopental-induced anesthesia; format: in vivo, mouse (ddY-strain male); conditions: 60 mg/10 ml/kg, control 1.00
Protocol: ddY-strain male mice of 5 weeks of age were employed. Thiopental sodium was dissolved in physiological saline, and the test substance was prepared with a suspending agent of 0.5% Tween 80 (trade name, produced by Atlas Powder Co.; polyoxyethylene (20) sorbitan mono-oleate) and 1% gum tragacanth in the ratio of 1:2.5. The test animals were starved for 4 hours, 60 mg/10 ml/kg of the test substance was intraperitoneally administered (or orally administered), and then 20 minutes later (1 hour later in the case of oral administration), 30 mg/[…] of thiopental sodium was intravenously administered. The time immediately from intravenous administration to the righting reflex was measured, and this was defined as the anesthetic time. The formula for determining the anesthesia elongation is shown below. [formula]

[3] = toxicity test in mice by oral administration; conditions: in vivo, male mouse
Source text: Also, the compounds of the present invention are extremely safe, and can be used continuously for a long term as pharmaceuticals, and were confirmed to have good tolerability in the toxicity test in mice by oral administration.

[4] = i.p., 20 minutes before i.v. thiopental sodium
[5] = p.o., 1 hour before i.v. thiopental sodium

Compound | responders at 1 mg/kg (histamine-induced death) | The ratio of the elongation on the anesthetic time induced by thiopental [2, 4] | The ratio of the elongation on the anesthetic time induced by thiopental [2, 5] | other results
O=C(O)CCCN1CCC(OC(c2ccc(Cl)cc2)c2ccccn2)CC1 (centres unmarked) [Compound L, 4-[4-[(4-Chlorophenyl)-2-pyridylmethoxy]-1-piperidyl]-butanoic acid] | 100% |  |  | 
CC(C)(C)c1ccc(C(O)CCCN2CCC(C(O)(c3ccccc3)c3ccccc3)CC2)cc1 (centres unmarked) [Terfenadine, reference compound] | 50% |  |  | sedative side-effect ([1]; in vivo): little sedative side-effect
Clc1ccc(C(OC2CCN(CCSc3nc4ccccc4s3)CC2)c2ccccn2)cc1 (centres unmarked) [Compound E, 2-[2-[4-[(4-Chlorophenyl)-2-pyridylmethoxy]-1-piperidyl]-ethylthio]benzothiazole] | 60% | 1.02 |  | 
O=C(CCCN1CCC(OC(c2ccc(Cl)cc2)c2ccccn2)CC1)c1ccccc1 (centres unmarked) [Compound Q, 4-[(4-Chlorophenyl)-2-pyridylmethoxy]-1-(3-benzoylpropyl)piperidine] | 100% |  | 1.25 | 
Chlorophenylamine maleate [reference compound] |  | 1.81 |  | Percent inhibition of histamine-induced death at a dose of 1 mg/kg, P.D. (%) (histamine-induced death): 100%
COc1ccc(CCN2CCC(Nc3nc4ccccc4n3Cc3ccc(F)cc3)CC2)cc1 [Astemizole, reference compound] | 100% |  |  | sedative side-effect ([1]; reported for control drugs): little sedative side-effect
CC(=O)CCCN1CCC(OC(c2ccc(Cl)cc2)c2ccccn2)CC1.O=C(O)/C=C/C(=O)O (centres unmarked) [Compound P, 5-[4-[(4-Chlorophenyl)-2-pyridylmethoxy]-1-piperidyl]-2-pentanone fumaric acid salt] | 100% |  | 0.86 | 
CCOC(=O)CCCN1CCC(OC(c2ccccc2)c2ccccc2)CC1.O=C(O)/C=C/C(=O)O [Compound N, Ethyl 4-(4-diphenylmethoxy-1-piperidyl)butanoate fumaric acid salt] | 80% |  | 0.90 | 
CN1CCCC(n2nc(Cc3ccc(Cl)cc3)c3ccccc3c2=O)CC1 (centres unmarked) [Azelastine hydrochloric acid, reference compound] | 100% |  |  | 
c1ccc(C(c2ccccc2)N2CCN(CCCSc3nc4ccccc4s3)CC2)cc1 [Compound I, 2-[3-[4-(diphenylmethyl)-1-piperadinyl]propylthio]benzothiazole dimaleate] | 80% | 1.25 |  | 
NC(=O)CCCN1CCC(OC(c2ccc(Cl)cc2)c2ccccn2)CC1.O=C(O)/C=C\C(=O)O (centres unmarked) [Compound M, 4-[4-[(4-Chlorophenyl)-2-pyridylmethoxy]-1-piperidyl]-butanamide maleate] | 100% |  | 0.75 | 
Clc1ccc(C(OC2CCN(CCCSc3nc4ccccc4o3)CC2)c2ccccn2)cc1 (centres unmarked) [Compound C] | 100% | 0.91 |  | 
CCOC(=O)CCCN1CCC(OC(c2ccc(Cl)cc2)c2ccccn2)CC1.Cc1ccc(S(=O)(=O)O)cc1 (centres unmarked) [Compound K, Ethyl 4-[4-[(4-chlorophenyl)-2-pyridylmethoxy]-1-piperidyl]butanoate p-toluenesulfonate] |  |  | 1.19 | LD50 [3]: 2200 mg/kg
CCOC(=O)CCCN1CCC(OC(c2ccc(Cl)cc2)c2ccccn2)CC1 (centres unmarked) [Compound J, Ethyl 4-[4-[(4-chlorophenyl)-2-pyridylmethoxy]-1-piperidyl]butanoate] | 100% | 1.04 |  | 
Clc1ccc(C(OC2CCN(CCNc3nc4ccccc4s3)CC2)c2ccccn2)cc1 (centres unmarked) [Compound H, 2-[2-[4-[(4-Chlorophenyl)-2-pyridylmethoxy]-1-piperidyl]-ethylamino]benzothiazole] | 100% | 1.05 |  | 
c1ccc2c(c1)Sc1ccccc1N2CC1CN2CCC1CC2 (centres unmarked) [Meqiutazine, reference compound] | 80% |  |  | 
Clc1ccc(C(OC2CCN(CCCSc3nc4ccccc4s3)CC2)c2ccccn2)cc1 (centres unmarked) [Compound F, 2-[3-[4-[(4-Chlorophenyl)-2-pyridylmethoxy]-1-piperidyl]-propylthio]benzothiazole] | 80% | 1.73 |  | 
Clc1ccc(C(OC2CCN(CCNc3nc4ccccc4o3)CC2)c2ccccn2)cc1.O=C(O)/C=C/C(=O)O (centres unmarked) [Compound D, 2-[2-[4-[(4-Chlorophenyl)-2-pyridylmethoxy]-1-piperidyl]-ethylamino]benzoxazole fumaric acid salt] | 100% |  | 0.88 | LD50 [3]: 740 mg/kg
O=c1[nH]c2ccccc2n1CCCN1CCN(C(c2ccccc2)c2ccccc2)CC1 [Oxatomide, reference compound] | 100% |  | 4.56 | 
Clc1ccc(C(OC2CCN(CCSc3nc4ccccc4o3)CC2)c2ccccn2)cc1 (centres unmarked) [Compound A, 2-[2-[4-[(4-Chlorophenyl)-2-pyridylmethoxy]-1-piperidyl]-ethylthio]benzoxazole] | 100% | 0.89 |  | 
CCOc1ccc2nc(SCCCN3CCC(OC(c4ccc(Cl)cc4)c4ccccn4)CC3)sc2c1.O=C(O)/C=C/C(=O)O (centres unmarked) [Compound G, 2-[3-[4-[(4-chlorophenyl)-2-pyridylmethoxy]-1-piperidyl]propylthio]-6-ethoxybenzothiazole fumarate] | 100% |  | 0.92 | 
CCOC(=O)C=CCN1CCC(OC(c2ccc(Cl)cc2)c2ccccn2)CC1 (centres unmarked) [Compound O, Ethyl 4-[4-[(4-chlorophenyl)-2-pyridylmethoxy]-1-piperidyl]-2-butenoate] | 100% |  | 1.14 | 
Clc1ccc(C(OC2CCN(CCSc3nc4ccccc4o3)CC2)c2ccccn2)cc1.O=C(O)/C=C/C(=O)O (centres unmarked) [Compound B, 2-[2-[4-[(4-Chlorophenyl)-2-pyridylmethoxy]-1-piperidyl]-ethylthio]benzoxazole fumarate] |  |  | 1.21 | LD50 [3]: 1700 mg/kg
